Source: PMC11587510, “Aromatic Amino Acid Hydroxylases as Off-Targets of Histone Deacetylase Inhibitors” (ACS Chemical Neuroscience, 2024)
Several values for one entry are separate records, joined by “and”; a condition that tells them apart may be missing. Identical values can stand only once. Like-named read-outs stand apart in the source and are kept apart here.

What was measured:
human recombinant HDAC1 = target: T1, human recombinant HDAC1 (Homo sapiens, UniProt Q13547); test: HDAC1 activity assay (homogeneous fluorescence, ZMAL); type: biochemical; settings: 1.11–30 μM compound, DMSO (5%) control
T1 construct: purchased BPS Bioscience 50051

TPH1 = target: T2, TPH1 (Homo sapiens, UniProt P17752); test: Differential scanning fluorimetry (DSF) thermal stability assay; type: binding; settings: for Tm (°C) ± SD (°C), primary screen / ΔTm at 50 µM / ΔTm (°C) ± SD (°C), primary screen: DSF, 50 μM compound; for Tm (°C) ± SD (°C), primary screen: 0.075 mg/mL TPH1, 0.5% DMSO, three independent measurements (a: duplicates); for ΔTm at 50 µM / ΔTm (°C) ± SD (°C), primary screen: vs averaged Tm of 0.5% DMSO controls; for ΔTm at 50 µM: read-out: ΔTm (°C) ± SD (°C), primary screen; for Kd: read-out: apparent KD (μM), dose-response
T2 construct: doubly truncated human TPH1 (ΔNH102-ΔCOOH402); made in house; host or cells: E. coli BL21(DE3)
Procedure: A fluorescence-based thermal stability assay (differential scanning fluorimetry, DSF) was used for testing the effects of HDIs on the thermal stability of TPH1.
For initial high throughput screening (HTS), compounds were prepared at a concentration of 10 mM (in some cases, 5 mM) in 100% DMSO. Initial HTS screening was performed on TPH1 with and without compounds using a LightCycler 480 Real-Time PCR System (Roche Applied Science). TPH1 was diluted to 0.075 mg/mL in 50 mM Tris pH 8.0, 200 mM NaCl, 0.5 mM TCEP, and 5% glycerol with 5x SYPRO Orange. Compounds were added to a final concentration of 50 μM. Controls with 0.5% DMSO were performed on each 384-well microplate. Unfolding curves were recorded from 20 to 95 °C at a scan rate of 2 °C/min and monitored at excitation = 465 nm and emission = 610 nm. Selected hits were validated further by serial dilution from 250 μM to 122 nM, keeping the DMSO concentration constant at 2%.
DSF data were analyzed using HTSDSF Explorer.[55] Melting temperature (Tm) was calculated from the maximum value of the first derivative of the unfolding curve. ΔTm (Tm with compound–averaged Tm in DMSO controls) was plotted for all validated curves and a threshold of 2 °C was set (typically, cutoff at ΔTm = 3-fold the SD of the Tm of the DMSO control).
Preliminary binding constants (KD) were calculated by fitting data to the equation [drawing 1] where ΔH0 is the enthalpy of the unfolding of the protein in the presence of ligand ([L]), and R is the gas constant.

HDAC 8 = settings: human recombinant HDAC; ref 1 (PMID: 26443078); cited from earlier work
human PAH = target: T3, human PAH (Homo sapiens, UniProt P00439); test: PAH enzyme activity assay (HPLC, L-Tyr); type: biochemical; settings: best-fit IC50 (± SE), nonlinear regression, N.A. = no activity
T3 construct: Full-length human TH isoform 1 (TH1), human PAH, human TPH2, and doubly truncated human TPH1; made in house; host or cells: E. coli TB1
T3 sequence (P00439 1-452): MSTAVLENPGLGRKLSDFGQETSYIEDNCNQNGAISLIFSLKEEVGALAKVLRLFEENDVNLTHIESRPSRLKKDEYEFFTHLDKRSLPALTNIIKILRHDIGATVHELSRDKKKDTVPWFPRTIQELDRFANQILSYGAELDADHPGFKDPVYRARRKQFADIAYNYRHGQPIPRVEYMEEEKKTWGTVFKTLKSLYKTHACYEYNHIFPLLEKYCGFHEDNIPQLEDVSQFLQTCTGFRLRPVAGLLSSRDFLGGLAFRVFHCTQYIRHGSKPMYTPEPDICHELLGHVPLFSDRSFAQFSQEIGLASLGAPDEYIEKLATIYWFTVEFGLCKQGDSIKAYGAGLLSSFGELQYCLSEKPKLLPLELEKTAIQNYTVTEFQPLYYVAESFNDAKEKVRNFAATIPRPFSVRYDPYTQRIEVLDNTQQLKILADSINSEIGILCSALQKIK

human TH isoform 1 (TH1) = target: T4, human TH isoform 1 (TH1) (Homo sapiens, UniProt P07101); test: TH enzyme activity assay (HPLC, L-DOPA); type: biochemical; settings: best-fit IC50 (± SE), nonlinear regression; N.A. = no activity
T4 construct: Full-length human TH isoform 1 (TH1); His6-ZZ fusion partner (one of the two preparations only) (cleaved yes); made in house; host or cells: E. coli BL21(DE3) pLysS (pET3a) or BL21 CodonPlus (pET-ZZ-1a)
Procedure: The activity of purified PAH, TH, TPH1, and TPH2 was measured using high-performance liquid chromatography (HPLC) as previously described.[50],[56],[57]
TH activities were performed in a standard reaction mixture containing 40 mM Hepes (pH 7.0), 0.1 mg/mL catalase, 10 μM ferrous ammonium sulfate, and 50 μM L-Tyr. Compounds were incubated with TH (0.01 mg/mL) in the reaction mixture for 10 min on ice. The enzymatic reaction was initiated by adding 200 μM BH4 and 2 mM DTT (final concentrations) and stopped by precipitation with 2% (v/v) acetic acid in ethanol after 5 min at 37 °C. The product, L-DOPA, was quantified by HPLC utilizing a fluorescence monitor set at 281 and 314 nm for excitation and emission, respectively.
GraphPad Prism (version 10; La Jolla, CA) was used for analyzing the enzyme inhibition data.

human TPH2 = target: T5, human TPH2 (Homo sapiens, UniProt Q8IWU9); test: TPH2 enzyme activity assay (HPLC); type: biochemical; settings: best-fit IC50 (± SE), nonlinear regression; N.A. = no activity
T5 construct: Full-length human TH isoform 1 (TH1), human PAH, human TPH2, and doubly truncated human TPH1; MBP (cleaved yes); made in house; host or cells: E. coli BL21(DE3)
T5 sequence (Q8IWU9 1-490): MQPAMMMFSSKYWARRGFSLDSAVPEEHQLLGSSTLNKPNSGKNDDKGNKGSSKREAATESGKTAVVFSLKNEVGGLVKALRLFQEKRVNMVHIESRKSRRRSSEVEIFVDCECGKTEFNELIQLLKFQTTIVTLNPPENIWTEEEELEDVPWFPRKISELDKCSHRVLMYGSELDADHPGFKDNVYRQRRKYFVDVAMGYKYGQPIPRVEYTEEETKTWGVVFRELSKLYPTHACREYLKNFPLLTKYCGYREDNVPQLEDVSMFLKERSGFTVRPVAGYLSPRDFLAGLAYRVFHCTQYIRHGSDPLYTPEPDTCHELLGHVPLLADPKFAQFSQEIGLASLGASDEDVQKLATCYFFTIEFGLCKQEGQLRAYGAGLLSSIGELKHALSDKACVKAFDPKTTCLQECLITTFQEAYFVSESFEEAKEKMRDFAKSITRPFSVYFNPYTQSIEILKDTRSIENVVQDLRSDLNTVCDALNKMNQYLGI

[1] = target: T6, doubly truncated human TPH1 (ΔNH102-ΔCOOH402) (Homo sapiens, UniProt P17752); test: TPH1 enzyme activity assay (HPLC, 5-OH-Trp); type: biochemical; settings: for IC50: best-fit IC50 (± SE), nonlinear regression, N.A. = no activity
T6 construct: doubly truncated human TPH1 (ΔNH102-ΔCOOH402); made in house; host or cells: E. coli BL21(DE3)

HDAC 1 = settings: human recombinant HDAC; ref 5 (10.1021/acs.jmedchem.8b01090); cited from earlier work
HDAC 6 = settings: human recombinant HDAC; ref 5 (10.1021/acs.jmedchem.8b01090); cited from earlier work
[2] = Solubility observed in DSF dose-response; type: physicochemical; settings: highest concentrations removed before curve fitting
[3] = estimated from DSF dose-response, 2% DMSO

T2 sequence (P17752 102-402): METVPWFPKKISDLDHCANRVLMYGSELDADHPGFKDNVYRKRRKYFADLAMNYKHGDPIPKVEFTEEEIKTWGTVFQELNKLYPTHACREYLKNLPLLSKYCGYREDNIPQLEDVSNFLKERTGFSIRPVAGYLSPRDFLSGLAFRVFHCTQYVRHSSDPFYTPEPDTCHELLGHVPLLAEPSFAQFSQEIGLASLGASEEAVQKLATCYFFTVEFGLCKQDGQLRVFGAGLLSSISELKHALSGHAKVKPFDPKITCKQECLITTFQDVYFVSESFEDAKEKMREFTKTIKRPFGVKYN
T6 sequence (P17752 102-402, stated change not applied): as the sequence (P17752 102-402) above
T4 sequence (P07101 1-497 isoform P07101-3): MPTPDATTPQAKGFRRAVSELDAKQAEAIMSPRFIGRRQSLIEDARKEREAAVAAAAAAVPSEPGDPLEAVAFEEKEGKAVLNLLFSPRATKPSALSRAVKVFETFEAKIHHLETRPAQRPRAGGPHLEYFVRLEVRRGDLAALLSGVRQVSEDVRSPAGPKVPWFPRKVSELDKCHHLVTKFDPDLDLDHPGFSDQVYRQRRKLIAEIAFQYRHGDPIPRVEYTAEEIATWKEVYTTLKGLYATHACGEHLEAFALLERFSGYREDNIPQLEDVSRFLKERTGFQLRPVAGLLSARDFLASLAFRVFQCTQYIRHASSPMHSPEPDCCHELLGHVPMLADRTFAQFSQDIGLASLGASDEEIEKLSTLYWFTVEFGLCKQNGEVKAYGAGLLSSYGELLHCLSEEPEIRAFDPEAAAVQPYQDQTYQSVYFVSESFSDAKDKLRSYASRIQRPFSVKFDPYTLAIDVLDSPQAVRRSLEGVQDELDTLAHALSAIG
T1 sequence (Q13547 whole entry): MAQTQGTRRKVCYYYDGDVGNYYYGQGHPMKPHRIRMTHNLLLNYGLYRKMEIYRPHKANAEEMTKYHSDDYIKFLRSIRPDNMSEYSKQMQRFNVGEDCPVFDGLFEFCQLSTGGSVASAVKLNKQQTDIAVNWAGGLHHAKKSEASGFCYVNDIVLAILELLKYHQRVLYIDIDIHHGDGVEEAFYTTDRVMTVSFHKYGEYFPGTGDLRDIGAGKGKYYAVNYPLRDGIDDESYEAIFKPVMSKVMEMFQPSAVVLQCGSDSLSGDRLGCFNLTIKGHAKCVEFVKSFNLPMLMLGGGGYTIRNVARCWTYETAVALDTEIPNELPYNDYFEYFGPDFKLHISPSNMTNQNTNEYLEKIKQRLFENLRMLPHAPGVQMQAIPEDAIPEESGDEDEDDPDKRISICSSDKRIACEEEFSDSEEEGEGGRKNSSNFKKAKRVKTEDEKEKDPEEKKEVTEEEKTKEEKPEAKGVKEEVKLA

Compound	Tm (°C) ± SD (°C), primary screen (TPH1)	ΔTm (°C) ± SD (°C), primary screen (TPH1) [°C]	Kd (TPH1; [3])	further results
N[C@@H](Cc1ccc(Cl)cc1)C(=O)O [L-PCPA, 4-chloro-L-phenylalanine]	–	–	–	effect on HDAC1 activity (human recombinant HDAC1): do not inhibit
Nc1ccccc1NC(=O)c1ccc(CNC(=O)OCc2cccnc2)cc1 [entinostat, reference compound]	56.0 ± 0.4 °C	–	–	ΔTm at 50 µM (TPH1): 0.7 ± 0.3 °C
O=C(CCCCCCC(=O)Nc1ccccc1)NO [vorinostat, reference compound]	56.4 ± 1.9 °C	–	–	IC50 (HDAC 8): […]; ΔTm at 50 µM (TPH1): 1.1 ± 2.1 °C; IC50 (human PAH; IC50 (μM) PAH): 1.72 ± 0.61 µM
COc1ccc2c(c1)N(Cc1ccc(C(=O)NO)cc1)c1ccccc1S2 [KV103, N-Hydroxy-4-[(2-methoxy-10H-Phenothiazin-10-yl)methyl]benzamide]	59.6 ± 0.7 °C	4.3 ± 0.5	49.4 µM	IC50 (human TH isoform 1 (TH1)): 100 ± 128 µM; IC50 (human TPH2): 9.78 ± 17.2 µM; IC50 [1]: 106 ± 177 µM; inhibition of TPH1 activity at 50 μM ([1]; compound 50 μM, 0.5% DMSO): more than 50%; IC50 (human PAH; read-out: IC50 (μM) PAH): 8.12 ± 1.67 µM; IC50 (HDAC 1): 2070 ± 190 nM; IC50 (HDAC 6): 10 ± 1 nM
O=C(NO)c1cc2ccccc2[nH]1 [TB74, 1H-Indole-2-hydroxamic acid]	59.7 ± 0.4 °C	4.4 ± 0.4	0.7 µM and 1.4 µM	inhibition of TPH1 activity at 50 μM ([1]; compound 50 μM, 0.5% DMSO): no significant inhibition; solubility at the highest concentrations [2]: solubility issues
O=C(NO)c1ccc(CN2c3ccccc3Sc3ccccc32)cc1 [KV46, 4-[(10H-phenothiazin-10-yl)methyl]-N-hydroxybenzamide]	59.1 ± 0.5 ^a °C	3.6 ± 0.3	> 100 µM	solubility at the highest concentrations [2]: solubility issues
O=C(NO)c1coc(C(c2ccccc2)c2ccccc2)n1 [JS32, 2-(diphenylmethyl)-1,3-oxazole-4-carbohydroxamic acid]	58.5 ± 0.2 ^a °C	3.1 ± 0.0	30.9 µM	solubility at the highest concentrations [2]: solubility issues
COc1ccc(C(=O)NO)cc1OCc1ccccc1 [PZ031, 3-Benzyloxy-4-methoxybenzhydroxamic acid]	57.0 ± 0.2 °C	1.6 ± 0.1	54.6 µM	–
Oc1ccccc1-c1nc2ccccc2o1 [2-(2-OH-phenyl)benzoxazol, 2-(2-hydroxyphenyl)benzoxazole, reference compound]	57.6 ± 0.7 °C	–	–	ΔTm at 50 µM (TPH1): 2.3 ± 0.9 °C
O=C(NO)c1cccc(NCc2ccccc2)c1 [TH28, 3-N-Benzylamino-benzohydroxamate]	58.1 ± 0.3 °C	2.8 ± 0.1	76.3 µM	–
Cc1ccc(C(=O)NO)cc1C(=O)Nc1ccc(Cl)cc1 [EG23, 3-(4-Chlorophenylcarbamoyl)-N-hydroxy-4-methylbenzamide]	58.2 ± 0.2 °C	2.7 ± 0.2	14.1 µM	–
COC(=O)[C@H](Cc1ccc(-c2ccc(C)cc2)cc1)NC(=O)CCCCCCC(=O)NO [SW189]	58.0 ± 0.3 °C	2.7 ± 0.0	–	–
Cc1ccn(-c2cc(Cl)ccc2[C@@H](Oc2cc(-c3ccc(C[C@H](N)C(=O)O)cc3)nc(N)n2)C(F)(F)F)n1 [telotristat]	–	–	–	IC50 (human TH isoform 1 (TH1)): 4.2 µM; IC50 (human PAH; read-out: IC50 (μM) PAH): 4.9 µM; effect on HDAC1 activity (human recombinant HDAC1): do not inhibit
COc1ccc(C(=O)NO)cc1NS(=O)(=O)c1ccc(C)cc1 [TH71, 3-(N-para-touluenyl)-sulfonamido-4-methoxy-benzohydroxamate]	60.0 ± 0.3 °C	4.7 ± 0.1	1.8 µM	–
CC(C)c1cccc(=O)c(O)c1 [β-thujaplicin, reference compound]	–	–	–	IC50 (human TH isoform 1 (TH1)): 1.37 µM and 1.4 µM; effect of increasing compound concentration on the Tm of TPH1 (TPH1; DSF dose-response): concentration-dependent shift by decreasing the Tm; ΔTm at 50 µM (TPH1): -1.7 ± 0.1 °C; apparent KD (μM), dose-response (TPH1; [3]): very low affinity; IC50 (human TPH2): 12.9 µM; IC50 [1]: 12.6 µM; inhibition at 50 µM ([1]; compound 50 μM, 0.5% DMSO): > 50%; IC50 (human PAH; read-out: IC50 (μM) PAH): 0.46 µM and 0.5 µM
Cc1cc2cc(NS(=O)(=O)c3cc(C(=O)NO)ccc3Cl)ccc2n(C)c1=O [EG29, 4-Chloro-3-[(1,3-dimethyl-2-oxo-1,2-dihydroquinolin-6-yl)sulfamoyl]-N-hydroxybenzamide]	57.8 ± 0.0 °C	2.3 ± 0.2	10.3 µM	–
